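Each compound was tested at five concentrations against cells in 96-well plates for 48 hours. GI50 is the concentration that inhibits growth by half.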 Active and inactive are the calls of the source. Cut-off read from the data, not from the text of the source: active = GI50 up to about 1.1 µM and inactive = higher.
What was measured:
Experiment in all cases: DTP human tumour cell line panel, 48 h
SF-268 = test system: SF-268
TK-10 = test system: TK-10
CAKI-1 = test system: CAKI-1
OVCAR-4 = test system: OVCAR-4
SK-OV-3 = test system: SK-OV-3
MDA-MB-435 = test system: MDA-MB-435
HT-29 = test system: HT-29
BT-549 = test system: BT-549
DLD-1 = test system: DLD-1
T47D = test system: T47D
HL-60 = test system: HL-60
HCT-116 = test system: HCT-116
DMS-273 = test system: DMS-273
OVCAR-5 = test system: OVCAR-5
K562 = test system: K562
MOLT-4 = test system: MOLT-4
CCRF-CEM = test system: CCRF-CEM
A549 = test system: A549
MDA-N = test system: MDA-N
A498 = test system: A498
MCF7 = test system: MCF7
OVCAR-8 = test system: OVCAR-8
SNB-75 = test system: SNB-75
RXF 631 = test system: RXF 631
NCI-H23 = test system: NCI-H23
786-0 = test system: 786-0
Hs-578T = test system: Hs-578T
RXF 393 = test system: RXF 393
PC-3 = test system: PC-3
NCI-H522 = test system: NCI-H522
SW-620 = test system: SW-620
NCI/ADR-RES = test system: NCI/ADR-RES
COLO 205 = test system: COLO 205
ACHN = test system: ACHN
SNB-19 = test system: SNB-19
NCI-H460 = test system: NCI-H460
MDA-MB-231 = test system: MDA-MB-231
IGROV-1 = test system: IGROV-1
HOP-92 = test system: HOP-92
UACC-62 = test system: UACC-62
RPMI-8226 = test system: RPMI-8226
HOP-62 = test system: HOP-62
SK-MEL-5 = test system: SK-MEL-5
OVCAR-3 = test system: OVCAR-3
LOX IMVI = test system: LOX IMVI
SF-295 = test system: SF-295
SK-MEL-2 = test system: SK-MEL-2
UACC-257 = test system: UACC-257
KM-20L2 = test system: KM-20L2
HCC 2998 = test system: HCC 2998
UO-31 = test system: UO-31
EKVX = test system: EKVX
M14 = test system: M14
HCT-15 = test system: HCT-15
XF498 = test system: XF498
SN12C = test system: SN12C
Malme-3M = test system: Malme-3M
U-251 = test system: U-251
DU-145 = test system: DU-145
SNB-78 = test system: SNB-78
DMS-114 = test system: DMS-114
SK-MEL-28 = test system: SK-MEL-28
M19-MEL = test system: M19-MEL
NCI-H226 = test system: NCI-H226
KM12 = test system: KM12
SR = test system: SR
SF-539 = test system: SF-539
LXFL 529 = test system: LXFL 529
HOP-18 = test system: HOP-18

For `N=C(N)SCc1cccc2c(=O)cc(-c3ccccc3)oc12`, the GI50 (SF-268) was 12.4 µM (inactive), the GI50 (TK-10) was 7.57 µM (inactive) and the GI50 (CAKI-1) was 3.94 µM (inactive). The GI50 (OVCAR-4) was 7.24 µM (inactive), the GI50 (SK-OV-3) was 12.8 µM (inactive) and the GI50 (MDA-MB-435) was 8.02 µM (inactive). The GI50 (HT-29) was 4.84 µM (inactive), the GI50 (BT-549) was 13.2 µM (inactive) and the GI50 (DLD-1) was 7.59 µM (inactive). The GI50 (T47D) was 3.75 µM (inactive), the GI50 (HL-60) was 3.18 µM (inactive) and the GI50 (HCT-116) was 4.73 µM (inactive). For the same compound, the GI50 (DMS-273) was 7.14 µM (inactive), the GI50 (OVCAR-5) was 16.5 µM (inactive) and the GI50 (K562) was 5.35 µM (inactive). For the same compound, the GI50 (MOLT-4) was 2.68 µM (inactive), the GI50 (CCRF-CEM) was 3.87 µM (inactive) and the GI50 (A549) was 7.62 µM (inactive). For the same compound, the GI50 (MDA-N) was 6.53 µM (inactive), the GI50 (A498) was 9.27 µM (inactive) and the GI50 (MCF7) was 2.73 µM (inactive). The GI50 (OVCAR-8) was 4.5 µM (inactive), the GI50 (SNB-75) was 5.41 µM (inactive) and the GI50 (RXF 631) was 9.95 µM (inactive). The GI50 (NCI-H23) was 5.58 µM (inactive), the GI50 (786-0) was 3.9 µM (inactive) and the GI50 (Hs-578T) was 16.2 µM (inactive). The GI50 (RXF 393) was 4.79 µM (inactive), the GI50 (PC-3) was 4.54 µM (inactive) and the GI50 (NCI-H522) was 3.87 µM (inactive). For the same compound, the GI50 (SW-620) was 4.37 µM (inactive), the GI50 (NCI/ADR-RES) was 22 µM (inactive) and the GI50 (COLO 205) was 3.78 µM (inactive). The GI50 (ACHN) was 3.53 µM (inactive), the GI50 (SNB-19) was 23.9 µM (inactive) and the GI50 (NCI-H460) was 4.72 µM (inactive). The GI50 (MDA-MB-231) was 6.41 µM (inactive), the GI50 (IGROV-1) was 6.32 µM (inactive) and the GI50 (HOP-92) was 4.03 µM (inactive). The GI50 (UACC-62) was 12.7 µM (inactive), the GI50 (RPMI-8226) was 2.54 µM (inactive) and the GI50 (HOP-62) was 10.8 µM (inactive). For the same compound, the GI50 (SK-MEL-5) was 11.1 µM (inactive), the GI50 (OVCAR-3) was 6.97 µM (inactive) and the GI50 (LOX IMVI) was 12.2 µM (inactive). The GI50 (SF-295) was 11.4 µM (inactive), the GI50 (SK-MEL-2) was 5.56 µM (inactive) and the GI50 (UACC-257) was 10.9 µM (inactive). The GI50 (KM-20L2) was 6.24 µM (inactive), the GI50 (HCC 2998) was 12 µM (inactive) and the GI50 (UO-31) was 2.84 µM (inactive). For the same compound, the GI50 (EKVX) was 8.75 µM (inactive), the GI50 (M14) was 5.28 µM (inactive) and the GI50 (HCT-15) was 10.5 µM. The GI50 (XF498) was 5.87 µM (inactive), the GI50 (SN12C) was 6.19 µM (inactive) and the GI50 (Malme-3M) was 10.8 µM (inactive). The GI50 (U-251) was 7.66 µM (inactive), the GI50 (DU-145) was 4.93 µM (inactive) and the GI50 (SNB-78) was 6.32 µM (inactive). The GI50 (DMS-114) was 6.47 µM (inactive), the GI50 (SK-MEL-28) was 4.43 µM (inactive) and the GI50 (M19-MEL) was 13.2 µM (inactive). The GI50 (NCI-H226) was 15.9 µM (inactive), the GI50 (KM12) was 9.29 µM (inactive) and the GI50 (SR) was 4.05 µM (inactive). The GI50 (SF-539) was 7.26 µM (inactive).
In the case of `O=C(Cc1ccccc1)NN1C(=O)C(Cl)C1c1ccccc1Cl` (stereo not given), the GI50 (SF-268) is reported as > 70.1 µM (inactive), the GI50 (TK-10) is reported as > 100 µM (inactive) and the GI50 (CAKI-1) is reported as > 60.3 µM (inactive). The GI50 (OVCAR-4) was > 100 µM (inactive), the GI50 (SK-OV-3) was > 100 µM (inactive) and the GI50 (HT-29) was > 94.2 µM (inactive). For the same compound, the GI50 (DLD-1) was > 69.2 µM (inactive), the GI50 (HL-60) was 30.1 µM (inactive) and the GI50 (HCT-116) was 59.4 µM (inactive). The GI50 (DMS-273) was 72.8 µM (inactive), the GI50 (OVCAR-5) was > 100 µM (inactive) and the GI50 (K562) was 33.7 µM (inactive). For the same compound, the GI50 (MOLT-4) was 26.2 µM (inactive), the GI50 (CCRF-CEM) was 14.1 µM (inactive) and the GI50 (A549) was > 100 µM (inactive). For the same compound, the GI50 (A498) was > 100 µM (inactive), the GI50 (OVCAR-8) was > 74 µM (inactive) and the GI50 (SNB-75) was 51.3 µM (inactive). For the same compound, the GI50 (NCI-H23) was 64.1 µM (inactive), the GI50 (786-0) was 71.8 µM (inactive) and the GI50 (RXF 393) was 48.8 µM (inactive). The GI50 (NCI-H522) was 13.2 µM (inactive), the GI50 (SW-620) was 34.4 µM (inactive) and the GI50 (COLO 205) was > 100 µM (inactive). The GI50 (ACHN) was > 100 µM (inactive), the GI50 (SNB-19) was > 100 µM (inactive) and the GI50 (NCI-H460) was 76 µM (inactive). For the same compound, the GI50 (IGROV-1) was 39 µM (inactive), the GI50 (HOP-92) was > 100 µM (inactive) and the GI50 (UACC-62) was 68.5 µM (inactive). The GI50 (RPMI-8226) was 19.5 µM (inactive), the GI50 (HOP-62) was > 100 µM (inactive) and the GI50 (SK-MEL-5) was > 72.6 µM (inactive). For the same compound, the GI50 (OVCAR-3) was > 62.7 µM (inactive), the GI50 (LOX IMVI) was 24.3 µM (inactive) and the GI50 (SF-295) was 99.8 µM (inactive). The GI50 (SK-MEL-2) was > 100 µM (inactive), the GI50 (UACC-257) was > 70.6 µM (inactive) and the GI50 (KM-20L2) was 98.6 µM (inactive). The GI50 (HCC 2998) was > 100 µM (inactive), the GI50 (UO-31) was > 100 µM (inactive) and the GI50 (EKVX) was > 100 µM (inactive). For the same compound, the GI50 (M14) was > 100 µM (inactive), the GI50 (HCT-15) was > 92.9 µM and the GI50 (XF498) was > 75 µM (inactive). The GI50 (SN12C) was > 75.9 µM (inactive), the GI50 (Malme-3M) was > 100 µM (inactive) and the GI50 (LXFL 529) was 33.6 µM (inactive). The GI50 (U-251) was 44.1 µM (inactive), the GI50 (HOP-18) was > 100 µM (inactive) and the GI50 (SNB-78) was 83.6 µM (inactive). The GI50 (DMS-114) was 32.6 µM (inactive), the GI50 (SK-MEL-28) was > 100 µM (inactive) and the GI50 (M19-MEL) was > 100 µM (inactive). For the same compound, the GI50 (NCI-H226) was > 100 µM (inactive), the GI50 (KM12) was > 79.3 µM (inactive) and the GI50 (SR) was 23.2 µM (inactive). For the same compound, the GI50 (SF-539) was > 100 µM (inactive).

From ChEMBL document CHEMBL1201862, “PubChem BioAssay data set” (2004)
